# Measured values published in patent US5506237A, “Bicyclic nitrogen compounds” (Adir et Compagnie, priority 1993, dated 1996).
# Columns and labels:
# Prolyl-endopeptidase = experiment: biochemical
# [1] = molecular target: T1, prolyl-endopeptidase in rat cerebral cortex (Rattus norvegicus, UniProt O70196); experiment: In vivo inhibition of prolyl-endopeptidase in rat cerebral cortex after IP administration; settings: 1 mg/kg IP, 30 minutes before preparation of the tissue extract
# T1 sequence (O70196 1-710): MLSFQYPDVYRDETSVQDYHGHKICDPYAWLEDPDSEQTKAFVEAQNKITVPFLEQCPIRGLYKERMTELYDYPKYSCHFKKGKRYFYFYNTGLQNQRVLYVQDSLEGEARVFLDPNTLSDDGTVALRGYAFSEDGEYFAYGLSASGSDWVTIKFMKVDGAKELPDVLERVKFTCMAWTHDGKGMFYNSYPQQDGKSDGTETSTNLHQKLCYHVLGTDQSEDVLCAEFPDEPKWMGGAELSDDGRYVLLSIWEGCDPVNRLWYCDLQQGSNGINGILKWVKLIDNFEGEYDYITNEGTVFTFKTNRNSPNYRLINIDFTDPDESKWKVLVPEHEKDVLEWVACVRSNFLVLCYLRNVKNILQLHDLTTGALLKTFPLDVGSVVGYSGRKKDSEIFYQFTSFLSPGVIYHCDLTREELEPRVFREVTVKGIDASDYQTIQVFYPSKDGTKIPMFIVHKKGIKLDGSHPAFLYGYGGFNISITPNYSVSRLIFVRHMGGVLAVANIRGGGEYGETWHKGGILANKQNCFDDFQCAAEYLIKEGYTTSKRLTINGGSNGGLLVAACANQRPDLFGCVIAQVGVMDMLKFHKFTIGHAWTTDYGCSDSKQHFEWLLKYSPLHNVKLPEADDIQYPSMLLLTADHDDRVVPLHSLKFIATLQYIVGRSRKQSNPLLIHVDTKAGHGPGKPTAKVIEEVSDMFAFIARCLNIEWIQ
# [2] = molecular target: T1, prolyl-endopeptidase in rat cerebral cortex; experiment: Duration of action with respect to in vivo inhibition of prolyl-endopeptidase in rat cerebral cortex; settings: IP
# [3] = molecular target: T1, prolyl-endopeptidase in rat cerebral cortex; experiment: Oral bioavailability estimated from inhibiting effect after oral versus IP administration; type: in vivo; settings: inhibiting effect (%) after oral divided by that after IP administration, 30 or 60 minutes
# [4] = molecular target: T1, prolyl-endopeptidase in rat cerebral cortex; experiment: In vitro inhibition of prolyl-endopeptidase in rat cerebral cortex extract (substrate TRH-pNitroaniline); type: biochemical; settings: 37° C.
# Sequence of Prolyl-endopeptidase (P27028 21-705): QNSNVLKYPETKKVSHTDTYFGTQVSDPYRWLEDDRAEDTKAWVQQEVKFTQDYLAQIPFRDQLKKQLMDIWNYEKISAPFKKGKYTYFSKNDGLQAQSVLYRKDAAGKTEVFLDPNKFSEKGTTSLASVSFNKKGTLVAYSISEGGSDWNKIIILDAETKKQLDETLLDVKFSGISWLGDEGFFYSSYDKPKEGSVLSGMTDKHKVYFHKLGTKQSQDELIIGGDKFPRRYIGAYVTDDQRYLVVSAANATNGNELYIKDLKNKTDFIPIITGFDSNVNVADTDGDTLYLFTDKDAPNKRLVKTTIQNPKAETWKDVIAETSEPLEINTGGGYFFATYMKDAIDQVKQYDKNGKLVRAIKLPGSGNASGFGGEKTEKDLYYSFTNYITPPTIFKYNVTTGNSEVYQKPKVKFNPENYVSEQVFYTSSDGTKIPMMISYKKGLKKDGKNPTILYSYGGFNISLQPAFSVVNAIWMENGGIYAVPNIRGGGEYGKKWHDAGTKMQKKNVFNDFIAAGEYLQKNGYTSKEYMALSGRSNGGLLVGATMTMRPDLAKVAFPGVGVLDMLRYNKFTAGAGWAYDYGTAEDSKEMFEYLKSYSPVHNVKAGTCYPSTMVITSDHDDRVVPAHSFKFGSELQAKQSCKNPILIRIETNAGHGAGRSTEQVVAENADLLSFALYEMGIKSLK
IC50 (Prolyl-endopeptidase) [nM],inhibition at 1 mg/kg [1] [%],Structure (SMILES),further results
40,42,"O=C([C@@H]1C2CCC(CC2)N1C(=O)[C@@H]1C[C@H]1c1ccc(F)cc1)N1CCCC1 [Example 2, (3S)-2-{(1R,2R)-[2-(4-Fluorophenyl)-1-cyclopropyl]carbonyl}-3-[(pyrrolidin-1-yl)carbonyl]-2-azabicyclo[2.2.2]octane]",t1/2 (time for which the inhibiting effect is equal to 50 % of the maximum effect measured at 30 minutes) ([2]; 1 mg/kg): 7 h
,,"O=C([C@@H]1CSCN1C(=O)CCCc1ccccc1)N1CCCC1 [Zeria, N-(4-phenylbutanoyl)-L-thiaprolylpyrrolidineimide, reference compound]",t1/2 (time for which the inhibiting effect is equal to 50 % of the maximum effect measured at 30 minutes) ([2]; 30 mg/kg): 1 h; OBI (oral bioavailability index) ([3]; 30 mg/kg): 0.30
,41,"O=C([C@@H]1C[C@@H]2CCCC[C@@H]2N1C(=O)C1CC1Cc1ccccc1)N1CCCC1 (single isomer, unassigned) [Example 14]",
,58,"O=C([C@@H]1C[C@@H]2CCCC[C@@H]2N1C(=O)[C@@H]1C[C@H]1c1cccc(C(F)(F)F)c1)N1CCCC1 [Example 5, (2S,3aS,7aS)-1-{(1R,2R)-[2-(3-Trifluoromethylphenyl)-1cyclopropyl]carbonyl}-2-[(pyrrolidin-1-yl)carbonyl]perhydroindole]",IC50 [4]: 1 nM
14,59,"O=C([C@@H]1C[C@@H]2CCCC[C@@H]2N1C(=O)[C@@H]1C[C@H]1c1cccs1)N1CCCC1 [Example 3, (2S,3aS,7aS)-1-{(1R,2R)-[2-(2-Thienyl)-1-cyclopropyl]carbonyl}-2-[(pyrrolidin-1-yl)carbonyl]perhydroindole]",IC50 [4]: 1.4 nM
,,"O=C[C@@H]1CCCN1C(=O)CCC(=O)NCc1ccc(Cl)cc1 [ONO, (S)-1-[N-4-chlorobenzylsuccinamoyl] pyrrolidine-2-carbaldehyde, reference compound]",t1/2 (time for which the inhibiting effect is equal to 50 % of the maximum effect measured at 30 minutes) ([2]; 30 mg/kg): 1 h
3,49,"O=C([C@@H]1C2CCC(CC2)N1C(=O)[C@@H]1C[C@H]1c1cccc(C(F)(F)F)c1)N1CCCC1 [Example 6, (3S)-2-{(1R,2R)-[2-(3-Trifluoromethylphenyl)-1-cyclopropyl]carbonyl}-3-[(pyrrolidin-1-yl)carbonyl]-2-azabicyclo[2.2.2]octane]",
14,54,O=C([C@@H]1C[C@@H]2CCCC[C@@H]2N1C(=O)[C@@H]1C[C@H]1c1ccc(F)cc1)N1CCCC1 [Example 1],t1/2 (time for which the inhibiting effect is equal to 50 % of the maximum effect measured at 30 minutes) ([2]; 1 mg/kg): 7 h; OBI (oral bioavailability index) ([3]; 1 mg/kg): 0.90
